# Where “and” joins values, the source holds several entries; their conditions need not be identical. Identical values can stand only once.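 Where inhibition never reached the appropriate level, the endpoint shown equals the highest concentration tested. Otherwise, values were interpolated linearly from a five-concentration, 48-hour dose response in 96-well plates. The concentration for 50% growth inhibition is given as GI50. TGI denotes the concentration required for complete inhibition of growth.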
# How the values were obtained:
# Experiment in all cases: NCI-60 cell line screen, 48 h
# NCI/ADR-RES ovarian = test system: NCI/ADR-RES ovarian
# SK-MEL-2 melanoma = test system: SK-MEL-2 melanoma
# TK-10 renal = test system: TK-10 renal
# KM12 colon = test system: KM12 colon
# UACC-257 melanoma = test system: UACC-257 melanoma
# SN12C renal = test system: SN12C renal
# NCI-H522 lung = test system: NCI-H522 lung
# OVCAR-4 ovarian = test system: OVCAR-4 ovarian
# HCT-116 colon = test system: HCT-116 colon
# 786-0 renal = test system: 786-0 renal
Compound,TGI (NCI/ADR-RES ovarian),TGI (SK-MEL-2 melanoma),TGI (TK-10 renal),TGI (KM12 colon),TGI (UACC-257 melanoma),TGI (SN12C renal),TGI (NCI-H522 lung),TGI (OVCAR-4 ovarian),TGI (HCT-116 colon),TGI (786-0 renal),GI50 (NCI/ADR-RES ovarian),GI50 (SK-MEL-2 melanoma),GI50 (TK-10 renal),GI50 (KM12 colon),GI50 (UACC-257 melanoma),GI50 (SN12C renal),GI50 (NCI-H522 lung),GI50 (OVCAR-4 ovarian),GI50 (HCT-116 colon),GI50 (786-0 renal)
O=NNc1ccc(Sc2ccc3ccccc3c2)cn1,89.4 µM,43.4 µM,> 100 µM,> 100 µM,> 100 µM,> 100 µM,54 µM,> 100 µM,40.6 µM,> 100 µM,,,,,,,,,,
NC(Cc1ccc(O)cc1)C(=O)N/N=C/c1ccc(N(CCCl)CCCl)cc1 (stereo not given),> 100 µM,> 100 µM,> 100 µM,> 100 µM,98.5 µM,> 100 µM,> 100 µM,> 100 µM,> 100 µM,75.9 µM,17.3 µM,60.6 µM,25.2 µM,24.6 µM,15.6 µM,1.42 µM,25.1 µM,28.4 µM,21.8 µM,5.98 µM
COC(=O)c1c2c(c(C)[n+]([O-])c1C)C(=O)C=C(NCc1ccc(Br)cc1)C2=O,3.31 µM,4.13 µM,5.88 µM,1.81 µM,0.907 µM,1.74 µM,4.11 µM,1.04 µM,0.667 µM,2.23 µM,0.332 µM,1.55 µM,2.27 µM,0.171 µM,0.229 µM,0.581 µM,1.23 µM,0.181 µM,0.173 µM,0.637 µM
Cc1ccc2c(n1)C(=O)C(Cl)=C(Nc1ccc(N3CCN(C)CC3)cc1)C2=O,9.45 µM,3.56 µM,3.42 µM,23.5 µM,3.11 µM,3.1 µM,4.78 µM,2.87 µM,3.19 µM,3.1 µM,3.09 µM,1.87 µM,1.95 µM,10.2 µM,1.7 µM,1.72 µM,1.86 µM,1.5 µM,1.67 µM,1.71 µM
Cc1cc(Br)c2nsnc2c1[N+](=O)[O-],20.7 µM,8.89 µM,12.4 µM,0.665 µM,10.9 µM,17.2 µM,0.381 µM,17.3 µM,3.63 µM,13.7 µM,4.54 µM,3.45 µM,3.72 µM,0.245 µM,3.87 µM,4.93 µM,0.176 µM,4.73 µM,1.77 µM,3.96 µM
COc1ccc(Oc2nc(Nc3ccc(N4CCOCC4)cc3)ncc2NC(=O)Nc2cc(OC)cc(OC)c2)cc1,> 33.3 µM,15.9 µM,> 33.3 µM,15.3 µM,23.8 µM,4.5 µM,21.7 µM,10.9 µM,3.27 µM,5.74 µM,> 33.3 µM,4.11 µM,6.58 µM,1.82 µM,5.47 µM,1.17 µM,3.94 µM,2.91 µM,1.14 µM,1.31 µM
Oc1[nH]c2ccc(Cl)cc2c1/C=c1/ccc2c(c1)N=C(c1ccc(C(F)(F)F)cc1)N=2,7.77 µM,3.79 µM,9.75 µM,7.63 µM,4.93 µM,6.72 µM,3.24 µM,11.4 µM,5.02 µM,3.31 µM,2.6 µM,1.97 µM,3.62 µM,2.08 µM,2.08 µM,2.37 µM,1.66 µM,2.73 µM,1.98 µM,1.75 µM
O=C1NC(=O)C(N2CCc3ccccc32)=C1c1ccc(Cl)cc1,> 25 µM,> 25 µM,> 25 µM,> 25 µM,> 25 µM,> 25 µM,> 25 µM,> 25 µM,> 16.6 µM,> 14.5 µM,> 25 µM,> 25 µM,> 25 µM,> 25 µM,> 25 µM,> 25 µM,> 25 µM,> 25 µM,> 10.2 µM,> 10 µM
CCN1CCN(CC(=O)Nc2nc3ccc(NCc4ccc(C)cc4)cc3s2)CC1,21.6 µM,12.8 µM,15.1 µM,13.8 µM,11.3 µM,11.1 µM,11.5 µM,16.2 µM,5.32 µM,10.9 µM,5.98 µM,5.53 µM,7.54 µM,5.67 µM,3.33 µM,4.11 µM,4.45 µM,6.24 µM,1.53 µM,4.24 µM
Cc1cc2oc(=O)c(Cl)c(Cl)c2c(C)c1Cl,38.4 µM,26 µM,28.3 µM,29.4 µM,30 µM,24.5 µM,28.3 µM,15.6 µM,14 µM,10.2 µM,,,,,,,,,,
O=C1/C(=C\c2ccc([N+](=O)[O-])cc2)CS(=O)(=O)C/C1=C/c1ccc([N+](=O)[O-])cc1,3.15 µM,3.17 µM,2.97 µM,1.46 µM,5.33 µM,1.56 µM,0.398 µM and 1.29 µM,0.612 µM and 1.37 µM,0.227 µM and 1.28 µM,0.356 µM and 0.359 µM,0.315 µM,0.366 µM,0.992 µM,0.25 µM,0.931 µM,0.344 µM and 0.366 µM,0.168 µM,0.207 µM,0.0821 µM,0.133 µM
O=C(NCCSSCCNC(=O)/C(Cc1ccc(O)c(Br)c1)=N/O)/C(Cc1ccc(O)c(Br)c1)=N/O,7.97 µM,3.26 µM,> 22.4 µM,10.5 µM,> 34.6 µM,5.73 µM,4.26 µM,18.3 µM,5.98 µM,8.49 µM,,,,,,,,,,
O=C1C=CC(=O)c2c1cc1ccccc1c2O,25.8 µM,30.9 µM,11 µM,26.4 µM,7.91 µM,25.2 µM,3.98 µM,5.67 µM,4.05 µM,18.7 µM,,,,,,,,,,
Cc1ccc(C2NC(=S)N3C(c4ccc(C)cc4)NC(=S)N23)cc1 (stereo not given),6.19 µM,12.1 µM,26.9 µM,17.4 µM,22.6 µM,19.4 µM,8.54 µM,21.9 µM,13.4 µM,19.9 µM,2.33 µM,3.4 µM,12.3 µM,4.04 µM,10.3 µM,5.88 µM,1.94 µM,9.89 µM,4 µM,5.82 µM
